Results taken from DBAASP.
In brackets after ≈: the same amount, converted by molar mass. Several values for one entry are separate records, joined by “and”; a condition that tells them apart may be missing. Equal entries are not always repeated.

Experiments:
Experiment in all cases: ≥ marks a high value that may be exact or a test limit, other limits are often not marked, values filed in µg/mL are converted to µM
[1] = system: Escherichia coli ATCC 25922
[2] = system: Staphylococcus aureus CIB 85462
[3] = system: Escherichia coli CIB 84492
[4] = system: Candida albicans CIB 45437
[5] = system: Staphylococcus aureus ATCC 25923
[6] = system: Escherichia coli ATCC 25726
[7] = system: Staphylococcus aureus ATCC 2576
[8] = system: Escherichia coli ATCC 25629
[9] = system: Shigella dysenteriae ATCC 2932
[10] = system: Escherichia coli
[11] = system: Staphylococcus aureus
[12] = system: Shigella dysenteriae
[13] = system: Candida albicans ATCC 3007
[14] = system: Enterococcus faecium
[15] = system: Staphylococcus aureus LT1338
[16] = system: Stenotrophomonas maltophilia
[17] = system: Candida albicans
[18] = system: Staphylococcus aureus LT1334
[19] = system: Citrobacter freundii
[20] = system: Escherichia coli ML-35
[21] = system: Staphylococcus haemolyticus
[22] = system: Staphylococcus epidermidis LT1324
[23] = system: Staphylococcus aureus 710A
[24] = system: Salmonella enterica subsp. enterica serovar Typhimurium ATCC 14028
[25] = system: Staphylococcus simulans
[26] = system: Micrococcus luteus
[27] = system: Bacillus megaterium Bm11
[28] = system: Pseudomonas aeruginosa ATCC 27853
[29] = system: Pseudomonas aeruginosa
[30] = system: Klebsiella pneumoniae
[31] = system: Staphylococcus aureus NCTC 8325
[32] = system: Candida albicans ATCC 90028
[33] = system: Acinetobacter baumannii I NM8
[34] = system: Klebsiella pneumoniae ATCC 700603
[35] = system: Pseudomonas aeruginosa KCTC 1637
[36] = system: Serratia marcescens ATCC 8100
[37] = system: Escherichia coli O18:K1:H7 Bort
[38] = system: Escherichia coli KCTC 1682
[39] = system: Streptococcus agalactiae
[40] = system: Escherichia coli D21
[41] = system: Staphylococcus aureus Cowan 1
[42] = system: Staphylococcus aureus KCTC 1621
[43] = system: Cryptococcus neoformans
[44] = system: Salmonella typhimurium KCTC 1926
[45] = system: Serratia marcescens
[46] = system: Staphylococcus epidermidis KCTC 1917
[47] = system: Staphylococcus epidermidis ATCC 12228
[48] = system: Bacillus subtilis KCTC 3068

Work on `CC[C@H](C)[C@@H]1NC(=O)[C@H](C)NC(=O)[C@@H](NC(=O)[C@H](Cc2ccccc2)NC(=O)[C@@H](NC(=O)[C@@H](NC(=O)[C@@H]2CCCN2C(=O)[C@@H](NC(=O)[C@@H](NC(=O)[C@H](CCC(N)=O)NC(=O)[C@H](C)NC(=O)[C@H](C)NC(=O)[C@@H](NC(=O)[C@H](CCCN=C(N)N)NC(=O)[C@H](CC(C)C)NC(=O)[C@@H](NC(=O)[C@H](C)NC(=O)[C@@H]2CCCN2C(=O)[C@H](CC(C)C)NC(=O)[C@@H](N)Cc2ccccc2)C(C)C)C(C)C)C(C)C)C(C)C)[C@@H](C)O)C(C)C)CSSC[C@@H](C(=O)O)NC(=O)[C@H](CCCCN)NC(=O)[C@H](CCCCN)NC(=O)[C@H](CO)NC1=O` [FLPAVLRVAAQVVPTVFCAISKKC] yielded an MIC [1] of 50 µM (≈ 128 µg/mL), an MIC [2] of 12.5 µM (≈ 32 µg/mL) and an MIC [3] of 25 µM (≈ 64 µg/mL). For the same molecule, the MIC [4] was ≥ 50 µM, the MIC [5] was 3.12 µM (≈ 7.99 µg/mL) and the MIC [6] was ≥ 48.8 µM.

For `CSCC[C@H](NC(=O)[C@H](CCCCN)NC(=O)[C@@H]1CCCN1C(=O)[C@H](CC(C)C)NC(=O)[C@@H](N)Cc1ccccc1)C(=O)N[C@@H](CO)C(=O)N[C@H](C(=O)N[C@@H](CCCCN)C(=O)N[C@@H](CC(C)C)C(=O)N[C@@H](CCCN=C(N)N)C(=O)N[C@H](C(=O)N1CCC[C@H]1C(=O)N[C@@H](Cc1ccc(O)cc1)C(=O)N[C@@H](CCCN=C(N)N)C(=O)N[C@@H](CCCN=C(N)N)C(=O)NCC(=O)N[C@H](C(=O)N[C@@H](CCCCN)C(=O)N[C@@H](CC(=O)O)C(=O)N[C@@H](Cc1ccc(O)cc1)C(=O)N[C@@H](Cc1cnc[nH]1)C(=O)O)[C@@H](C)O)C(C)C)[C@@H](C)O` [FLPKMSTKLRVPYRRGTKDYH], the MIC [7] was 0.463 µM (≈ 1.2 µg/mL), the MIC [8] was 4.82 µM (≈ 12.5 µg/mL) and the MIC [9] was 2.89 µM (≈ 7.5 µg/mL). For the same molecule, the MIC [10] was 5.78 µM (≈ 15 µg/mL), the MIC [11] was 1.93 µM (≈ 5 µg/mL) and the MIC [12] was 2.89 µM (≈ 7.5 µg/mL). The MIC [13] was 5.78 µM (≈ 15 µg/mL).

For `CC[C@H](C)[C@H](NC(=O)[C@H](CCCN=C(N)N)NC(=O)[C@H](C)NC(=O)[C@H](CC(C)C)NC(=O)[C@H](CCCN=C(N)N)NC(=O)CNC(=O)[C@H](Cc1ccccc1)NC(=O)[C@@H](NC(=O)[C@H](CO)NC(=O)CNC(=O)[C@H](CC(C)C)NC(=O)CN)C(C)C)C(=O)N[C@@H](CC(C)C)C(=O)NCC(=O)N[C@@H](CCCN=C(N)N)C(=O)N[C@H](C(=O)N[C@H](C(=O)N1CCC[C@H]1C(=O)N[C@@H](CCCCN)C(=O)N[C@H](C(N)=O)C(C)C)[C@@H](C)CC)C(C)C` [GLGSVFGRLARILGRVIPKV], the MIC [14] was 2 µM (≈ 4.22 µg/mL), the MIC [15] was 3 µM (≈ 6.32 µg/mL) and the MIC [16] was 2 µM (≈ 4.22 µg/mL). For the same molecule, the MIC [17] was > 4 µM, the MIC [18] was 1.5 µM (≈ 3.16 µg/mL) and the MIC [19] was 2 µM (≈ 4.22 µg/mL). For the same molecule, the MIC [20] was 2 µM (≈ 4.22 µg/mL), the MIC [21] was 2 µM (≈ 4.22 µg/mL) and the MIC [10] was 2.83 µM (≈ 5.96 µg/mL). For the same molecule, the MIC [11] was 2 µM (≈ 4.22 µg/mL), the MIC [22] was 2 µM (≈ 4.22 µg/mL) and the MIC [23] was 4 µM (≈ 8.43 µg/mL). For the same molecule, the MIC [24] was 8 µM (≈ 16.9 µg/mL), the MIC [25] was 2 µM (≈ 4.22 µg/mL) and the MIC [26] was 0.5 µM (≈ 1.05 µg/mL). For the same molecule, the MIC [27] was 2 µM (≈ 4.22 µg/mL), the MIC [28] was 8 µM (≈ 16.9 µg/mL) and the MIC [29] was 4 µM (≈ 8.43 µg/mL). For the same molecule, the MIC [30] was 2 µM (≈ 4.22 µg/mL).

For `CC[C@H](C)[C@H](NC(=O)[C@@H](NC(=O)[C@H](C)NC(=O)[C@H](CCCCN)NC(=O)[C@H](C)NC(=O)[C@@H](NC(=O)[C@H](CCCCN)NC(=O)CNC(=O)[C@H](CC(C)C)NC(=O)[C@H](C)NC(=O)[C@@H](NC(=O)CNC(=O)[C@H](C)NC(=O)[C@H](CCCCN)NC(=O)[C@@H](NC(=O)[C@H](C)NC(=O)[C@H](CCSC)NC(=O)CN)[C@@H](C)O)[C@@H](C)O)C(C)C)C(C)C)C(=O)NCC(=O)N[C@@H](C)C(=O)N[C@@H](C)C(=O)N[C@@H](CC(C)C)C(N)=O` [GMATKAGTALGKVAKAVIGAAL], the MIC [1] was > 100 µM, the MIC [31] was ≥ 100 µM and the MIC [32] was ≥ 100 µM. The MIC [33] was 25 µM (≈ 50 µg/mL), the MIC [5] was 160 µM and 100 µM and the MIC [34] was > 50 µM. For the same molecule, the MIC [6] was ≥ 100 µM.

With `CC[C@H](C)[C@H](NC(=O)[C@@H](NC(=O)[C@@H]1CCCN1C(=O)[C@H](CO)NC(=O)[C@H](CC(C)C)NC(=O)[C@H](CCCCN)NC(=O)[C@H](CCCCN)NC(=O)[C@H](Cc1ccccc1)NC(=O)[C@H](CC(C)C)NC(=O)[C@H](CCCCN)NC(=O)[C@H](CCCCN)NC(=O)[C@H](Cc1ccccc1)NC(=O)[C@H](CCCCN)NC(=O)[C@H](CCCCN)NC(=O)[C@H](CCCN=C(N)N)NC(=O)[C@H](Cc1ccccc1)NC(=O)[C@H](CCCN=C(N)N)NC(=O)[C@H](CCCCN)NC(=O)[C@H](Cc1ccccc1)NC(=O)[C@H](CCCN=C(N)N)NC(=O)CN)C(C)C)C(=O)N1CCC[C@H]1C(=O)N[C@@H](CC(C)C)C(=O)N[C@@H](CC(C)C)C(=O)N[C@@H](Cc1cnc[nH]1)C(=O)N[C@@H](CC(C)C)C(=O)NCC(N)=O` [GRFKRFRKKFKKLFKKLSPVIPLLHLG] the MIC [35] was 2 µM (≈ 6.56 µg/mL), the MIC [36] was 2 µM (≈ 6.56 µg/mL) and the MIC [14] was 5.66 µM (≈ 18.6 µg/mL). It also gave an MIC [37] of 0.5 µM (≈ 1.64 µg/mL), an MIC [1] of 1 µM (≈ 3.28 µg/mL) and an MIC [38] of 4 µM (≈ 13.1 µg/mL). For the same molecule, the MIC [39] was 2.83 µM (≈ 9.28 µg/mL), the MIC [40] was 0.25 µM (≈ 0.821 µg/mL) and the MIC [17] was 8 µM (≈ 26.3 µg/mL). It also gave an MIC [41] of 2 µM (≈ 6.56 µg/mL), an MIC [20] of 1 µM (≈ 3.28 µg/mL) and an MIC [11] of 4 µM (≈ 13.1 µg/mL). It also gave an MIC [42] of 4 µM (≈ 13.1 µg/mL), an MIC [43] of 4 µM (≈ 13.1 µg/mL) and an MIC [44] of 1 µM (≈ 3.28 µg/mL). The MIC [5] was 2 µM (≈ 6.56 µg/mL), the MIC [24] was 1 µM (≈ 3.28 µg/mL) and the MIC [45] was 2.83 µM (≈ 9.28 µg/mL). It also gave an MIC [46] of 2 µM (≈ 6.56 µg/mL), an MIC [27] of 2 µM (≈ 6.56 µg/mL) and an MIC [28] of 1 µM (≈ 3.28 µg/mL). For the same molecule, the MIC [47] was 1 µM (≈ 3.28 µg/mL) and the MIC [48] was 2 µM (≈ 6.56 µg/mL).
